# Values joined by “and” are separate entries in the source; they are usually repeats but may differ in a detail not shown here. Equal values may be shown once. Read-outs that look alike come from different tables or passages of the source. Marks after values point to notes of the source that are not given here.
# Tests used:
# CHO-MG* cells = assay: Cytotoxicity IC50 determination (MTS) in polyamine-transport-deficient CHO-MG* cells; assay type: cell-based, Chinese hamster; conditions: 48 h at 37° C.
# Excerpt: (§1) CHO cells were chosen along with a mutant cell line (CHO-MG*) to comment on how the synthetic conjugates gain access to the cells.^2c-e, 6 As discussed earlier, the CHO-MG cell line is polyamine-transport deficient and represents a model for alternative modes of entry (other than PTS) including passive diffusion or use of another transporter. The CHO cell line on the other hand, represents cells with high polyamine transport activity.^7, 10c A comparison of toxicity in these two CHO cell lines allowed for a screen that would detect selective use of the polyamine transporter. This is seen where high utilization of the PTS would be very toxic to CHO cells, however, there would not be the same level of toxicity found in CHO-MG cells.^2c-e, 6 Ultimately, a CHO-MG/CHO IC50 can be determined where a high ratio would be achieved for highly PTS selective compounds.
# (§2) CHO and CHO-MG cells were grown in RPMI 1640 medium supplemented with 10% fetal calf serum and 1% penicillin/streptomycin. Note: the media must contain L-proline (2 μg/mL) for proper growth of the CHO-MG cells. MALME-3M cells were grown in RPMI 1640 medium supplemented with 10% FBS and 1% penicillin/streptomycin. […] Cells in early to mid-log phase were used.
# (§3) Cell growth was assayed in sterile 96-well microtiter plates (Costar 3599, Corning, N.Y., USA). CHO and CHO-MG* cells were plated at 10,000 cells/mL. MALME-3M and MALME-3 cells were plated at 5,000 cells/mL. Drug solutions (10 μL per well) of appropriate concentration were added after an overnight incubation for each CHO cell line (90 μL). 48 h MALME-3M experiments were conducted using 10% Nu-Serum IV, and 96 h MALME-3M and MALME-3 experiments were conducted using 10% FBS. After exposure to the drug for 48 h (CHO, CHO-MG*, and MALME-3M) or 96 h (MALME-3M and MALME-3), cell growth was determined by measuring formazan
# (§4) formation from 3-(4,5-dimethylthiazol-2-yl)-5-(3-carboxymethoxyphenyl)-2-(4-sulphenyl)-2H-tetrazolium) inner salt (MTS) using a SynergyMx Biotek microplate reader for absorbance ([…]) measurements.^24
# CHO cells = assay: in vitro; assay type: cell-based; conditions: for IC50: 48 h at 37° C.; for MTD (μM) in CHO (maximum tolerated dose): hamster
# Excerpt: as §1, §2, §3, §4
# [1] = test system: polyamine transport system (PTS), CHO-MG* vs CHO cells; assay: CHO-MG*/CHO IC50 ratio, a measure of PTS selectivity; assay type: cell-based, Chinese hamster; conditions: 48 h; for IC50 ratio w/AG (CHO-MG*/CHO): with 1 mM AG; for IC50 ratio w/o AG (CHO-MG*/CHO): without AG
# Excerpt: Compounds with high CHO-MG/CHO IC50 ratios are considered PTS selective.
# as §1
# MALME-3 cells [2] = assay: Cytotoxicity IC50 determination (MTS) in MALME-3 cells; assay type: cell-based, human; conditions: 96 h at 37° C., 1 mM AG, 10% FBS
# Description: (§5) Armed with this insight, compounds 5a-8b were evaluated in the MALME-3M (melanoma) cell line and its non-cancerous counterpart MALME-3 obtained originally from the same patient. These matched cell lines provided a method to assess PTS selectivity for the cancer line (MALME-3M) over the non-cancerous cell line (MALME-3).
# (§6) CHO and CHO-MG cells were grown in RPMI 1640 medium supplemented with 10% fetal calf serum and 1% penicillin/streptomycin. Note: the media must contain L-proline (2 μg/mL) for proper growth of the CHO-MG cells. MALME-3M cells were grown in RPMI 1640 medium supplemented with 10% FBS and 1% penicillin/streptomycin. All cells were grown at 37° C. under a humidified 5% CO2 atmosphere Aminoguanidine (1 mM) was added to the growth medium to prevent oxidation of the drugs by the enzyme (bovine serum amine oxidase) present in calf serum. Cells in early to mid-log phase were used.
# as §3, §4
# MALME-3M cells [3] = assay: Cytotoxicity IC50 determination (MTS) in MALME-3M cells; assay type: cell-based, human
# Description: as §5, with “(MALME-3). […]” for “(MALME-3).”
# as §6, §3, §4
# [4] = test system: MALME-3M (melanoma) vs MALME-3 (normal) cells; assay: MALME-3/MALME-3M IC50 ratio, a measure of selectivity; assay type: cell-based, human; conditions: 96 h; 1 mM AG
# Excerpt: These matched cell lines provided a method to assess PTS selectivity for the cancer line (MALME-3M) over the non-cancerous cell line (MALME-3).
# [5] = test system: polyamine transport system (PTS), CHO-MG vs CHO cells; conditions: original CHO-MG line; cited from earlier work
# MALME-3 cells [6] = assay: Spermidine rescue experiments in MALME-3 cells; assay type: cell-based, human; conditions: dosed near the IC50 value; increasing spermidine
# Description: (§7) In order to validate that these drugs were toxic due to their use of the polyamine transport system, spermidine rescue experiments were conducted. Spermidine is a native polyamine and uses the PTS for cell entry. High concentrations of spermidine should outcompete the PTS-targeting drugs for cell entry. In this regard, spermidine when dosed at a non-toxic concentration should rescue the cells from the toxic effects of the PTS targeting agents. […] Both the anthryl and naphthyl systems when dosed at their IC50 concentrations gave >92% viability at 10 μM spermidine validating their use of the PTS. Rescue was observed from the initial 50% viability to >92% viability after co-dosing 10 μM spermidine.
# (§8) As stated above, in an effort to determine if the cytotoxicities seen for compounds 6-8 were polyamine transport related, MALME-3M and MALME-3 were dosed near the IC50 value of each drug. These cells were also treated with increasing amounts of spermidine to see if it could outcompete compounds 6-8 for cellular entry and thus rescue the cells. […] This supports the premise that these compounds gain access to these cells primarily via the PTS. […] Since the viability of MALME-3M cells could be partially rescued by spermidine, compounds 8a and 8b may gain access via the PTS and via non-PTS related pathway(s).
# [7] = test system: polyamine transport system (PTS) in L1210 cells; conditions: cited from earlier work
# MALME-3M cells [8] = assay: Spermidine rescue experiments in MALME-3M cells; assay type: cell-based, human; conditions: drug at its IC50 concentration, co-dosed 10 μM spermidine; cell line not given
# Description: as §7, §8
# [9] = test system: 60 human cancer cell lines; assay: NCI 60 cell-line screen; assay type: cell-based; conditions: 10 μM; 48 h
# Description: Once compounds 6a-b, 7a-b, and 8a-8b were evaluated in CHO and CHO-MG*, these compounds were sent to the National Cancer institute (NCI) to conduct its 60 cell-line screen to determine if these compounds could also be potent anti-cancer agents for human cancer cell lines. […] As shown in FIGS. 2A-2C, dose response curves were generated based upon the 60 cell-line screen at different molar concentrations of each PTS targeting agent 6b, 7b, and 8b.
# To generate FIGS. 2A-2C, the respective drug was dosed at 10 μM into each human cancer cell line and cell viability was assessed after a 48 h incubation at 37° C. in an environment of 5% CO2, 95% air and 100% relative humidity. A more descriptive methodology can be found at the NCI website: http://dtp.nci.nih.gov/branches/btb/ivclsp.html. Cell lines which gave bar graphs which extend to the right of the central line were more sensitive to the drug than cell lines which extended to the left of the center line.
# [10] = test system: 60 human cancer cell lines; assay: NCI 60 cell-line screen; assay type: cell-based; conditions: 5-dose assay
# in vitro = assay type: cell-based; conditions: Chinese hamster
# Excerpt: as §1, §2, §3, §4
# [11] = 1 mM AG 24 h prior to drug addition, read-out: CHO-MG* IC50 (μM) w/AG
# [12] = without AG, read-out: CHO-MG* IC50 (μM) w/o AG
# [13] = 1 mM AG 24 h prior to drug addition, read-out: CHO IC50 (μM) w/AG
# [14] = without AG, read-out: CHO IC50 (μM) w/o AG
# [15] = 48 h at 37° C., 1 mM AG, 10% Nu-Serum IV, read-out: MALME-3M IC50 (μM) w/ AG
# [16] = 48 h at 37° C., without AG, 10% Nu-Serum IV, read-out: MALME-3M IC50 (μM) w/o AG
# [17] = 96 h at 37° C., 1 mM AG, 10% FBS, read-out: MALME-3M IC50
# [18] = Cricetulus griseus, CHO-MG, Table 4, 1 mM AG 24 h prior to drug addition, read-out: CHO-MG* IC50
# [19] = Cricetulus griseus, CHO, Table 4, 1 mM AG 24 h prior to drug addition, read-out: CHO IC50
SMILES,IC50 (CHO-MG* cells; [11]),IC50 (CHO-MG* cells; [12]),IC50 (CHO cells; [13]),IC50 (CHO cells; [14]),IC50 ratio w/AG (CHO-MG*/CHO) [1],IC50 ratio w/o AG (CHO-MG*/CHO) [1],IC50 (MALME-3 cells [2]),IC50 (MALME-3M cells [3]; [15]),IC50 (MALME-3M cells [3]; [16]),IC50 (MALME-3M cells [3]; [17]),MALME-3/MALME-3M IC50 ratio [4],rescue by exogenous spermidine in MALME-3 (MALME-3 cells [6]),IC50 (CHO-MG* cells; [18]),"viability at 48 h, 0.01 μM (in vitro)",IC50 (CHO cells; [19]),MTD (μM) in CHO (maximum tolerated dose) (CHO cells),other results
"Cl.NCCCCNCCCCNCc1c2ccccc2cc2ccccc12 [Compound 5a, reference compound]",13.7 µM,2.2 µM,0.32 µM,1.5 µM,43 and 42.8,1.4,830 nM,0.48 µM,0.29 µM,0.27 µM,3.1,,,,,,CHO-MG/CHO IC50 ratio [5]: 150 and 148
Cl.NCCCCNCCCCNCc1ccc(CNCCCCNCCCCN)cc1 [Compound 8a],19.6 µM,56.5 µM,0.027 µM,10.3 µM,727,5.5,90 nM,0.01 µM,0.4 µM,0.005 µM,18,complete rescue,,,,,"Ki ([7]; read-out: Ki in L1210 cells): 520 nM; Ki ([7]; unit inferred, read-out: Ki values in L1210 cells): 490 ± 20 nM"
"CNCCCCNCCCCNCc1ccc(CNCCCCNCCCCNC)cc1 [Compound 8b, N1,N1′-(1,4-Phenylenebis(methylene))bis(N4-(4-(methylamino)butyl)butane-1,4-diamine)]",,,,,1715,1316,,,,,2,complete rescue,,,,,"IC50 (CHO-MG* cells; Cricetulus griseus, CHO-MG, 1 mM AG 24 h prior to drug addition, read-out: CHO-MG* IC50 (μM) w/AG): 51.5 µM; IC50 (CHO-MG* cells; Cricetulus griseus, CHO-MG, without AG, read-out: CHO-MG* IC50 (μM) w/o AG): 54 µM; IC50 (CHO cells; Cricetulus griseus, CHO, 1 mM AG 24 h prior to drug addition, read-out: CHO IC50 (μM) w/AG): 0.03 µM; IC50 (CHO cells; Cricetulus griseus, CHO, without AG, read-out: CHO IC50 (μM) w/o AG): 0.041 µM; IC50 (MALME-3 cells [2]; Homo sapiens, MALME-3): 20 nM; IC50 (MALME-3M cells [3]; Homo sapiens, Malme-3M, 48 h at 37° C., 1 mM AG, 10% Nu-Serum IV, read-out: MALME-3M IC50 (μM) w/ AG): 0.007 µM; IC50 (MALME-3M cells [3]; Homo sapiens, Malme-3M, 48 h at 37° C., without AG, 10% Nu-Serum IV, read-out: MALME-3M IC50 (μM) w/o AG): 0.007 µM; IC50 (MALME-3M cells [3]; Homo sapiens, Malme-3M, 96 h at 37° C., 1 mM AG, 10% FBS, read-out: MALME-3M IC50): 0.01 µM; viability at 10 μM spermidine (MALME-3M cells [8]): 75%; effect on breast cancer cell lines in the NCI 60 cell-line screen [9]: exhibited an anti-proliferation effect in breast cancer cell lines, particularly the T-47D cell line; effect on melanoma cell lines in the NCI 60 cell-line screen [9]: inhibited the proliferation of melanoma cell lines, particularly the MALME-3M cell line; NCI 5-dose assay, MALME-3M cell line [10]: dose dependent response"
"NCCCCNCCCCNCc1cccc(CNCCCCNCCCCN)c1 [Compound 34a, N^1,N^1′-(1,3-phenylenebis(methylene))bis(N^4-(4-aminobutyl)butane-1,4-diamine)]",,,,,1072,,,,,,,,30 µM,~90%,0.028 µM,0.01^f μM,
"NCCCCNCCCCNCCCCNCc1cccc(CNCCCCNCCCCNCCCCN)c1 [Compound 34b, N^1,N^1′-(1,3-phenylenebis(methylene))bis(N^4-(4-((4-aminobutyl)amino)butyl)butane-1,4-diamine)]",,,,,335,,,,,,,,13.4 µM,~90%,0.04 µM,0.01^g μM,

# From patent US9346741B2, “Polyamine transport selective therapeutic agents with enhanced stability” (University of Central Florida Research Foundation, Inc., priority 2012, dated 2016)
